This note sets out measurements from patent US7825151B2, “Hexahydro-cyclooctyl pyrazole cannabinoid modulators” (priority 2005, dated 2010).

For one experiment, the target named is T1, human CB1 receptor (Homo sapiens, UniProt P21554).
T1 construct: expressed in transfected cells; host or cells: SK-N-MC cells, stably transfected with pcDNA3 CB-1 (human)
Briefly: Functional cell-based CRE β-gal assay, CB1 (adenylate cyclase activity). As to conditions: single test concentration 1 μM (footnote 2). The source says:
The CB1 and CB2 receptors are G-protein coupled receptors (GPCR), which influence cell function via the Gi-protein. These receptors modulate the activity of intracellular adenylate cyclase, which in turn produces the intracellular signal messenger cyclic-AMP (cAMP).
At baseline, or during non-ligand bound conditions, these receptors are constitutively active and tonically suppress adenylate cyclase activity. The binding of an agonist causes further receptor activation and produces additional suppression of adenylate cyclase activity. The binding of an inverse agonist inhibits the constitutive activity of the receptors and results in an increase in adenylate cyclase activity.
By monitoring intracellular adenylate cyclase activity, the ability of compounds to act as agonists or inverse agonists can be determined.
Test compounds were evaluated in SK-N-MC cells which, using standard transfection procedures, were stably transfected with human cDNA for pcDNA3-CRE β-gal and pcDNA3 CB1 receptor (human) or pcDNA3 CB2 receptor (human). By expressing CRE β-gal, the cells produced β-galactosidase in response to CRE promoter activation by cAMP. Cells expressing CRE β-gal and either the human CB1 or CB2 receptor will produce less β-galactosidase when treated with a CB1/CB2 agonist and will produce more β-galactosidase when treated with a CB1/CB2 inverse agonist.
The cells were grown in 96-well plates under standard cell culture conditions at 37° C. in a 5% CO2 atmosphere. After 3 days, the media was removed and a test compound in media (wherein the media was supplemented with 2 mM L-glutamine, […] sodium pyruvate, 0.1% low fatty acid FBS (fetal bovine serum) and antibiotics) was added to the cell. The plates were incubated for 30 minutes at 37° C. and the plate cells were then treated with forskolin over a 4-6 hour period, then washed and lysed. The β-galactosidase activity was quantitated using commercially available kit reagents (Promega Corp. Madison, Wis.) and a Vmax Plate Reader (Molecular Devices, Inc).
The change in β-galactosidase activity was determined by setting a vehicle treated cell's activity value at 100% and expressing the β-galactosidase activity measured in a corresponding compound treated cell as a percent of the vehicle treated cell activity.
The EC50 value for functional activity for compounds tested was calculated by linear regression and was obtained from studies in which varying compound concentrations were used. Data provided for certain compounds is represented by percent change (%) in functional activity at a single test concentration: ^(1)10 μM and ^(2)1 μM.

Experiment [1] deals with oil of mustard induced colitis. Briefly: Oil of mustard induced colitis model. It is filed as in vivo, Male CD-1 mice. As to conditions: 5 mg/kg oral; for % Inh (Macro), % inhibition of colitis: macroscopic score; for % Inh (Micro), % inhibition of colitis: microscopic score. The source says: In the distal colon, the oil of mustard colitis model is characterized by a discontinuous pattern of mucosal epithelial damage, submucosal edema, infiltration of inflammatory cells (including macrophages, neutrophils and lymphocytes) into the mucosa and submucosa, increased wet weight of the colon, shrinkage of the colon length, diarrhea and apparent inflammation (see, Kimball E. S., Palmer J. M., D'Andrea M. R., Hornby P. J. and Wade P. R., Acute colitis induction by oil of mustard results in later development of an IBS-like accelerated upper GI transit in mice, Am. J. Physiol. Gastrointest. Liver Physiol., 2005, 288: G 1266-1273).
Male CD-1 mice (Charles River Laboratories, Kingston, N.C.) (9-11 weeks old) and fresh oil of mustard (OM) (allyl isothiocyanate, 98% purity, Sigma-Aldrich St. Louis, Mo.) were used.
The mice (9 per treatment group) were briefly anesthetized with ketamine/xylasine (Sigma, St. Louis, Mo.) and a solution of 0.5% OM in 30% ethanol (50 μL) was administered intracolonically (to a depth of 4 cm) via syringe (equipped with a ball-tipped 22 G needle).
A test compound was orally administered one day prior to colitis induction for assessing a prophylactic regimen or one day post-induction for assessing a therapeutic regimen. A test compound was orally administered daily thereafter. Two days after OM administration, the last test compound dose was administered.
Three days after OM administration, the animals were sacrificed. The colons were resected, examined for signs of inflammation, weighed after removing fecal contents and the length from the aboral end of the cecum to the anus was measured. The fecal contents were examined for signs of diarrhea. The distal colon between the 1st and the 4th centimeter was removed and placed in 10% neutral buffered formalin for histological analysis.
The macroscopic observations of colon inflammation (a measure of colon damage), colon weight and length and stool consistency and appearance were assigned a score and used to evaluate colitis severity.
The four observation scores for each colon were combined, whereby a combined score of 0 represents a normal colon and a combined score of 15 represents a maximally affected colon. Statistical analyses were performed in Graphpad Prism 4.0 using ANOVA.
Histological analyses of tissues consisted of staining paraffin-embedded tissue sections with hematoxylin-eosin dye. The tissues were examined using light microscopy by an investigator who was blinded to the sample groups. […]
The Macroscopic Score and Microscopic Score results for each treatment group in the prophylactic and therapeutic regimens were each combined into a mean score and expressed as % inhibition of colitis (% Inh). […]

T1 sequence (P21554 whole entry): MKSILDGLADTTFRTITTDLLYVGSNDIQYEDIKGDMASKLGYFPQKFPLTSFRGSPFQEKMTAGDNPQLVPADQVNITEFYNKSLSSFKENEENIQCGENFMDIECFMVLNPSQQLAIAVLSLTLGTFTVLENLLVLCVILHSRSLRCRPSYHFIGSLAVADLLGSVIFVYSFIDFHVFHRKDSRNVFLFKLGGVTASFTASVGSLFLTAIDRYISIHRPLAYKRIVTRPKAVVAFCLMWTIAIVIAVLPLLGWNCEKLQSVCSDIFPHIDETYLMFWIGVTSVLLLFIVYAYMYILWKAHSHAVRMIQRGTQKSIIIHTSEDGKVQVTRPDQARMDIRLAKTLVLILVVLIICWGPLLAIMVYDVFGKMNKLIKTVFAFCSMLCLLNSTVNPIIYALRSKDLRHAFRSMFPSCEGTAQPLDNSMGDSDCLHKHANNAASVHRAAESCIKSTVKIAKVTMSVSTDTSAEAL

As for `O=C(NCC12CC3CC(CC(C3)C1)C2)c1nn(C2CCCCC2)c2c1CCCCCC2` [Cpd 2, 1-cyclohexyl-4,5,6,7,8,9-hexahydro-1H-cyclooctapyrazole-3-carboxylic acid (adamantan-1-ylmethyl)-amide], at human CB1 receptor, the “CB1 receptor percent change in functional activity” value is “^(2)−71%”. Also, in experiment [1] (prophylactic regimen), the “% Inh (Macro), % inhibition of colitis” value amounted to 42.3 ± 12.6% and the “% Inh (Micro), % inhibition of colitis” value is listed as 74.4 ± 3.8%. In experiment [1] (therapeutic regimen), the “% Inh (Macro), % inhibition of colitis” value came to 38.7 ± 9.1% and the “% Inh (Micro), % inhibition of colitis” value came out at 66.0 ± 9.8%.
